The results in this text go back to patent US7807162B2, “Single domain VHH antibodies against von Willebrand factor” (Ablynx N.V., priority 2005, dated 2010).

The test system of the test is platelet adhesion to endothelial cell-derived ULvWF. Nature of the test: Platelet string formation on ULvWF of histamine-stimulated endothelial cells (perfusion). It counts as cell-based, human. The conditions noted are these: 0.2, 2 and 10 μg/ml; platelets in buffer or TTP plasma; 2.5 dyn/cm2, 4 minutes. On the procedure: Endothelial cells were obtained from human umbilical cord veins by the method of Maruyama (Z. Zellforsch. Mikrosk. A4nat. 60:69; 1963). Endothelial cells were activated with 100 μM histamine (Sigma-Aldrich, St Louis, Mo.) for 15 minutes at room temperature before the perfusion experiments.
Blood was drawn from healthy volunteers who denied ingestion of aspirin or other nonsteroidal anti-inflammatory drugs (NSAIDs) for the preceding 10 days into one-tenth volume 3.4% sodium citrate. Platelet-rich plasma (PRP) was prepared from whole blood by centrifugation (10 minutes at 200 g at room temperature). […] The platelet pellet was resuspended in HEPES (N-2-hydroxyethylpiperazine-N′-2-ethanesulfonic acid)-Tyrode buffer (10 mM HEPES, 137 mM NaCl, 2.68 mM KCl, 0.42 mM NaH2PO4, 1.7 mM MgCl2, 5 mM D-glucose, pH 6.5). Prostacyclin (PGI2, 10 ng/mL) was added to prevent platelet activation during the subsequent washing step. Platelets were spun down and resuspended in a small volume of HEPES-Tyrode buffer. This platelet suspension was diluted in HEPES buffer at pH 7.4, or in TTP plasma. […]
Endothelial cells were isolated from freshly obtained human umbilical cords by collagenase digestion of the interior of the umbilical vein. […] These ULvWF-adhered platelets appear as so-called ‘strings’, which are visible when the perfusion experiment is monitored by real-time video microscopy (FIG. 41). […]

Turning to “ALX-0081: ALX-0081 (SEQ ID NO:98), Nanobody; humanised bivalent nanobody with the 3a linker”, the “string formation of platelets on ULvWF” value is recorded as “complete inhibition of string formation”.
